# In article PMC7352977 (Cancers, 2020):
# Assays:
# SW480 = experiment: Cell proliferation assay (CCK-8), SW480; type: cell-based; conditions: SW480 (colon, KRAS G12V), 72 h, CCK-8, triplicate
# Protocol: (§1) Cells (2 × 10^3/well, 100 μL final volume per well) for HCT116 and NCI-H460, 5 × 10^3 cells/well for SW480 and NCI-H23, and 1 × 10^4 cells/well for AsPC-1 cell lines were used in this assay (Table 4). All cells were allowed to attach for 24 h after plating, and the cells were treated with fresh media the next day. […] After the 72 h incubation, cell counting kit-8 (CCK-8) solution (10 μL/well) was added, and cells were incubated for a further 4 h at 37 °C CO2 incubator. The optical density (OD) of each well at 450 nm was measured by using the Microplate reader (BioTek, USA). Experiments were performed at least three times with representative data presented.
# NCI-H23 = experiment: Cell proliferation assay (CCK-8), NCI-H23; type: cell-based; conditions: NCI-H23 (lung, KRAS G12C), 72 h, CCK-8, triplicate
# Protocol: as §1
# HCT116 = experiment: Cell proliferation assay (CCK-8), HCT116; type: cell-based; conditions: HCT116 (colon, KRAS G13D), 72 h, CCK-8, triplicate
# Protocol: as §1
# Solubility in water = type: physicochemical
# AsPC-1 = experiment: Cell proliferation assay (CCK-8), AsPC-1; type: cell-based, human; conditions: AsPC-1 (pancreas, KRAS G12D), 72 h, CCK-8, triplicate
# Protocol: as §1
# [1] = system: MEK/ERK signaling pathway; experiment: Western blot analysis of MEK/ERK signaling, AsPC-1; type: cell-based, human; conditions: AsPC-1, 24 and 48 h
# Protocol: (§2) Cells were plated in a 100 mm cell culture dish and incubated under standard conditions (37 °C under a humidified atmosphere containing 5% CO2) in RPMI-1640 media with 10% fetal bovine serum, 100 μ/mL penicillin, and 100 μ/mL streptomycin (Welgene, Korea). […] After treatment of 24, 48, and 72 h, the cells were lysed using protein extraction solution PRO-PREPTM (iNtRON Biotechnology, Korea) containing a protease inhibitor cocktail for 30 min at 4 °C. After this, the cells were centrifuged at 15,115 x g for 30 min. Protein content in the supernatant was measured with Bradford protein assay using bovine serum albumin (BSA). The protein was separated by 10% SDS-PAGE and transferred onto an immobilon-P membrane (Millipore, USA). Membrane was blocked in ProNA Protein-free 5X general or phospho-block solution (TransLab, Korea) for 1 h at room temperature. The membrane was incubated with primary antibodies against phosphorylated (p)-MEK1/2 (Ser217/221), total (t)-MEK1/2, p-ERK1/2 (Thr202/Tyr204), and t-ERK1/2 (Cell Signaling Technology, USA) at 4 °C overnight, washed with 1X PBS containing 0.1% Tween (PBST) three times, and incubated with anti-IgG secondary antibodies (Santa Cruz Biotechnology, USA) in PBST for 1 h. The transferred protein band was visualized with EzWestLumi plus (ATTO corporation, Japan). Probing for ß-acitn was used as a loading control.
# [2] = system: AsPC-1 pancreatic cancer cells (xenograft); experiment: Tumor xenograft model, AsPC-1, nude mice; type: in vivo; conditions: abdominal cavity
# Protocol: Five were deployed per group.
# The cells used in the cancer animal model used human-specific pancreatic cancer cell liquor AsPC-1, which was defrosted more than 2 weeks before the animal model was created to obtain stable cell alcohol conditions, and were incubated three times. The growth medium used for cell culture was used by adding 10% fetal bovine serum and 1% penicillin/streptomycin to the RPMI-1640 medium used for AsPC-1 cell lines. On the day of the production of the cancer animal model, AsPC-1 cell line was removed from the cell culture flask by 0.25% Trypsin/EDTA and washed twice with PBS. The cell line was finally harried to HBSS + matrigel (1:1). Since the number of cells to be used in the experiment was 1 × 10^6/head, the finally disheveled cell concentration was 1 × 10^7/mL. It was stored in ice until the test was used. In the case of cell transplantation, 100 μL was transplanted. The separation was performed when the average volume of the tumor had grown to more than 100 mm^3. A random separation of groups was conducted to ensure that the average tumor volume was equal in the day of separation, and the separation of groups was carried out into a total of three groups.
# NCI-H460 = experiment: Cell proliferation assay (CCK-8), NCI-H460; type: cell-based; conditions: NCI-H460 (lung, KRAS Q61H), 72 h, CCK-8, triplicate
# Protocol: as §1
# A549 = experiment: MTT, wild-type KRAS A549 cell line; type: cell-based; conditions: A549, compared with other tumor cell lines
# [3] = system: MEK/ERK signaling pathway; experiment: Western blot analysis of MEK/ERK signaling, SW480; type: cell-based; conditions: SW480, 24 and 48 h
# Protocol: as §2
# KRAS wild-type = experiment: [α-32P] GTP binding assay, KRAS wild-type; type: biochemical, human; conditions: H-REV107 peptide, 30 °C
# Protocol: His-tagged human KRAS wild-type and mutants (G12V, G12D, G12C, G13D, and Q61H) and H-REV107 were transformed into Escherichia coli BL21 (DE3) cells. Each individual colony was inoculated into […] of Luria-Bertani (LB) medium enriched with 10 μg/mL kanamycin, after which the bacteria were grown for 16 h at 37 °C. These cells were then added to 2 L of LB containing antibiotics and grown at 37 °C until the OD600 reached 0.5–0.6. The expression of the proteins was induced by 0.5 mM isopropyl-thio-β-D-1-thiogalactopyranoside (IPTG) at 25 °C, after which the bacterial cells were harvested by centrifugation at 3830 × g for 25 min at 4 °C, then disrupted by sonication in lysis buffer (50 mM HEPES (pH 7.5), 100 mM NaCl, and 2 mM MgCl2). The supernatant was subsequently incubated with Ni-NTA resin (BioRad) for 10 min. After washing, the bound protein was eluted from the beads with elution buffer (50 mM HEPES (pH 7.5), 500 mM NaCl, 2 mM MgCl2, and 400 mM imidazole). The eluted protein was further purified by fast protein liquid chromatography (FPLC) using a Superdex 200 10/300 GL column equilibrated with 50 mM HEPES (pH 7.5), 100 mM NaCl, and 2 mM MgCl2. The purity and identity of the proteins were determined by 15% SDS-PAGE. […]
# In addition, the protein complex was incubated with [α-^32P] […] Protein-bound radioactive nucleotide was quantified by liquid scintillation counting.
sequence,measurement,setting,value
LYDVAGSDKY [H-REV107 peptide],GI50,SW480,358 µM
same,GI50 (in words),NCI-H23,millimolar ranges
same,GI50 (in words),HCT116,millimolar ranges
same,solubility in water (in words),Solubility in water,highly soluble
same,GI50,AsPC-1,417 µM
same,expression level of total MEK/ERK protein (in words),[1],little effect
same,"phosphorylation levels of MEK/ERK, tendency to decrease (in words)",[1],little
same,"growth rate of tumors, high concentration group (in words)",[2]; 200 mg/kg,lowest growth rate
same,growth rate of tumors compared to Vehicle (in words),[2]; H-REV107 peptide experimental group,lower growth rate of tumors
same,tumor volume compared to Vehicle (in words),"[2]; all doses (50 and 200 mg/kg), day 3 to day 32 after inoculation",decrease
same,GI50 (in words),NCI-H460,millimolar ranges
same,effect on proliferation of wild-type KRAS A549 cell line (in words),A549,higher concentration state of H-REV107 peptide had an effect on the proliferation
same,expression level of total MEK/ERK protein (in words),[3],little effect
same,phosphorylation levels of MEK/ERK (in words),[3],decrease the phosphorylation levels of MEK/ERK
same,"GTP binding activity to KRAS wild-type, decreased to",KRAS wild-type,12%
